Measured values: ChEMBL document CHEMBL1146712, “Synthesis and biological evaluation of [4-(2-phenylethenesulfonylmethyl)phenyl]-quinazolin-4-yl-amines as orally active anti-cancer agents” (2004)

Columns and labels:
[1] = system: DU-145; assay: In vitro inhibition of DU145 (human prostate cancer) cell growth.; type: functional
[2] = system: HT-29; assay: Concentration required to inhibit growth of human colon (HT-29) cell line; type: functional
[3] = system: MCF7; assay: Concentration required to inhibit growth of human breast (MCF-7) cell line; type: functional
[4] = system: OVCAR-8; assay: Concentration required to inhibit growth of human ovarian (OVCAR8) cell line; type: functional
[5] = system: PC-3; assay: Concentration required to inhibit growth of human prostate (PC3) cell line; type: functional
[6] = system: SW-620; assay: Concentration required to inhibit growth of human colon (SW620) cell line; type: functional
[7] = system: UACC-62; assay: Concentration required to inhibit growth of human melanoma (UACC62) cell line; type: functional
[8] = system: U-251; assay: Concentration required to inhibit growth of human CNS (U251) cell line; type: functional
[9] = system: NCI-H522 (Homo sapiens); assay: Concentration required to inhibit growth of human lung (H522) cell line
[10] = system: ACHN; assay: Concentration required to inhibit growth of human renal (ACHN) cell line; type: functional
[11] = system: NCI/ADR-RES; assay: in vitro inhibition of MCF-7/ADR (human breast cancer) cell growth.; type: functional
[12] = system: SK-OV-3; assay: Concentration required to inhibit growth of human ovarian (SK-OV3) cell line; type: functional
[13] = system: Mus musculus; assay: (§1) Anticancer activity after implantation of HT-29 human adeno carcinoma xenograft in mice at a dose of 300 mg/kg; type: functional
[14] = system: Mus musculus; assay: Anticancer activity after implantation of HT-29 human adeno carcinoma xenograft in mice at a dose of 300 mg/kg; 0/6; type: functional
[15] = system: Mus musculus; assay: as §1; type: functional; set-up: reference not given here

Row | SMILES | GI50 [1] [µM] | GI50 [2] [µM] | GI50 [3] [µM] | GI50 [4] [µM] | GI50 [5] [µM] | GI50 [6] [µM] | GI50 [7] [µM] | GI50 [8] [µM] | GI50 [9] [µM] | GI50 [10] [µM] | GI50 [11] [µM] | GI50 [12] [µM] | inhibition in vivo at 300 mg/kg [13] [%] | Mortality [14] | Mean body weight [15] [%]
1 | O=S(=O)(/C=C/c1ccc(O)cc1)Cc1ccc(Nc2ncnc3ccc(Br)cc23)cc1 | 3 | 9 | 32 | > 100 | 42 | 94 | 28 | > 100 | 27 |  |  |  |  |  | 
2 | O=S(=O)(/C=C/c1ccccc1)Cc1ccc(Nc2ncnc3ccccc23)cc1 | 2 | > 100 | 74 | > 100 | > 100 | > 100 | > 100 | > 100 | > 100 | 58 | > 100 | 5 |  |  | 
3 | COc1cc2ncnc(Nc3ccc(CS(=O)(=O)/C=C/c4ccc(Br)cc4)cc3)c2cc1OC |  | 24 | 32 | 6 | 9.5 | 5 | 63 | 11 | 8 | 4 | 72 | 50 |  |  | 
4 | COc1cc2ncnc(Nc3ccc(CS(=O)(=O)/C=C/c4ccc(F)cc4)cc3)c2cc1OCCN1CCOCC1 |  | 100 | 100 | 48 | 100 | 100 | 100 | 100 | 100 | 66 |  | 36 |  |  | 
5 | O=S(=O)(/C=C/c1ccc(C(F)(F)F)cc1F)Cc1ccc(Nc2ncnc3ccc(Br)cc23)cc1 |  | 100 | 32 | 15 | 58 | 55 | 22 | 30 | 40 | 16 | 85 | 5 |  |  | 
6 | O=S(=O)(/C=C/c1ccc(F)cc1F)Cc1ccc(Nc2ncnc3cc(Cl)ccc23)cc1 | > 100 | > 100 | > 100 | > 100 | > 100 | > 100 | > 100 | > 100 | > 100 | > 100 | > 100 | > 100 |  |  | 
7 | N#Cc1ccc(/C=C/S(=O)(=O)Cc2ccc(Nc3ncnc4ccccc34)cc2)cc1 | > 100 | > 100 | > 100 | > 100 | > 100 | > 100 | > 100 | > 100 | > 100 | > 100 | > 100 | > 100 |  |  | 
8 | O=S(=O)(/C=C/c1ccc(Cl)cc1)Cc1ccc(Nc2ncnc3ccc(Br)cc23)cc1 | 1 | > 100 | 46 | 3 | 2 | 45 | 15 | 30 | 13 |  |  |  |  |  | 
9 | O=S(=O)(/C=C/c1ccc(F)cc1Cl)Cc1ccc(Nc2ncnc3cc(Cl)ccc23)cc1 | 37 | > 100 | 15 | > 100 | 73 | > 100 | 72 | 2 |  | 17 | > 100 | > 100 |  |  | 
10 | O=S(=O)(/C=C/c1ccc(Cl)c(Cl)c1)Cc1ccc(Nc2ncnc3ccccc23)cc1 |  | 11 | 28 | 14 | 35 | 41 | 21 | 11 | 32 | 28 | 22 | 22 |  |  | 
11 | O=S(=O)(/C=C/c1ccc(C(F)(F)F)cc1F)Cc1ccc(Nc2ncnc3ccccc23)cc1 |  | 100 | 100 | 100 | 100 | 100 | 100 | 100 | 100 | 100 | 100 | 39 |  |  | 
12 | O=S(=O)(/C=C/c1ccc(F)cc1)Cc1ccc(Nc2ncnc3ccccc23)cc1 | 0.3 | 1 | 16 | 2 | 1 | 100 | 5 | 0.01 | 13 | 0.01 |  | 2 | 84 | 0 | 5
13 | O=S(=O)(/C=C/c1ccc(Br)cc1)Cc1ccc(Nc2ncnc3ccccc23)cc1 | 55 | > 100 | 91 | 38 | 42 | > 100 | > 100 | > 100 | > 100 | 0.2 | > 100 | 1 |  |  | 
